B1: AeD7L1: D7 long form salivary protein from Ae. aegypti (GenBank: AAA29347) (protein, UniProt P18153 18-321, looked up)
Long form salivary protein …: STGPFDPEEMLFTFTRCMEDNLEDGPNRLPMLAKWKEWINEPVDSPATQCFGKCVLVRTGLYDPVAQKFDASVIQEQFKAYPSLGEKSKVEAYANAVQQLPSTNNDCAAVFKAYDPVHKAHKDTSKNLFHGNKELTKGLYEKLGKDIRQKKQSYFEFCENKYYPAGSDKRQQLCKIRQYTVLDDALFKEHTDCVMKGIRYITKNNELDAEEVKRDFMQVNKDTKALEKVLNDCKSKEPSNAGEKSWHYYKCLVESSVKDDFKEAFDYREVRSQIYAFNLPKKQVYSKPAVQSQVMEIDGKQCPQ

Tests used:
[1] = biological target: T1, AlboD7L1 (Aedes albopictus, UniProt Q5MIW7); assay: biochemical; type: binding; settings: for ΔH (kcal/mol) ± SE / −TΔS: ITC, 30 °C, TBS pH 7.4, single-site model, N fixed = 1
T1 construct: made in house; host or cells: Escherichia coli BL21 (DE3) pLysS
Description: To identify the potential biological function of AlboD7L1, isothermal titration calorimetry (ITC) was used to determine its binding affinities to putative ligands that are known to affect inflammation and hemostasis (biogenic amines, leukotrienes, and thromboxane A2). Measurements were performed on a MicroCal VP-ITC (Malvern Panalytical, Westborough, MA, USA) at 30 °C and stir speed at 286 rpm. […] Protein and ligands were diluted in Tris-buffered saline (TBS-20 mM Tris-HCl, 150 mM NaCl, pH 7.4) and degassed under vacuum for 5 min using a MicroCal ThermoVac (Malvern Panalytical, Westborough, MA, USA). The AlboD7L1 concentrations were 2 μM, 3 μM, or 5 μM, and ligand concentrations were prepared at 10-fold the protein concentration (20 μM, 30 μM, or 50 μM), depending on protein/ligand combination for optimal ITC performance. For eicosanoid ligands, the solvent was first evaporated under a stream of nitrogen gas prior to dissolving in TBS, vortexed, and sonicated for 10 min (Branson 1510, Branson Ultrasonics, Danbury, CT, USA) to ensure dissolution. The protein sample volume in the cell was 1.4 mL, and ligand injections were delivered in 10 μL volume in a total of 31 injections. The data was analyzed using the MicroCal PEAQ-ITC analysis software v 1.21 (Malvern Panalytical, Westborough, MA, USA) by fitting to a single-site binding model to obtain the stoichiometry (N), the dissociation constant (KD), the enthalpy of binding (ΔH), and the entropy change (ΔS°) at a constant temperature (T).

[2] = system: AeD7L1; set-up: method as in PMID 19234127; settings: cited from earlier work
[3] = system: platelet rich plasma; assay: Ex vivo platelet aggregation (light transmission aggregometer); type: cell-based, human; settings: lower U-46619 doses (Supplementary Figure S3A)
Description: Platelet rich plasma was obtained from normal healthy donors on the NCI IRB approved NIH protocol 99-CC-0168, “Collection and Distribution of Blood Components from Healthy Donors for In Vitro Research Use.” Blood donors provided written informed consent, and platelets were de-identified prior to distribution. Platelet aggregation was measured using a light transmission aggregometer (Chrono-Log Corporation, Havertown, PA, USA). Briefly, 300 μL of platelet rich plasma, diluted to approximately 2.5 × 10^5 platelets/μL in HEPES-Tyrode’s buffer (137 mM NaCl, […], 12 mM NaHCO3, 0.34 mM sodium phosphate monobasic, 1 mM MgCl2, 2.9 mM KCl, 5 mM HEPES, 5 mM glucose, 1% BSA, 0.03 mM EDTA, pH 7.4) were pre-stirred in the aggregometer for 1 min to monitor pre-aggregation effects. Recombinant AlboD7L1 or Tyrode’s buffer as negative control were added to the platelet rich plasma before adding the agonists. Aggregation agonists used in our studies included serotonin, epinephrine, collagen type I fibrils from equine tendons, U-46619, ADP or combination of agonists. Their concentrations are specified in the figure or figure captions. Technical duplicates were performed. For experiments shown in Figure 6 a Chrono-Log aggregometer model 500-CA was used while experiments shown in Supplementary Figure S3 were done in a Chrono-Log model 700.

T1 sequence (Q5MIW7 22-332 limits assumed): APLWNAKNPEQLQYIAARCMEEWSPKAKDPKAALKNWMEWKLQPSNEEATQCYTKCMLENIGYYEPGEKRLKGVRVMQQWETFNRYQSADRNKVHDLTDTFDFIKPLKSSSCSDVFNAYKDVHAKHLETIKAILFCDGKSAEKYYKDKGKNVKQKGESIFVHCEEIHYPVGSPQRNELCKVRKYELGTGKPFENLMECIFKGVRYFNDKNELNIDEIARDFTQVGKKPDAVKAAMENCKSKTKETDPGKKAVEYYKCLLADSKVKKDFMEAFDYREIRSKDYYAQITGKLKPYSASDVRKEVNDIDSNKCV

Molecule | Kd [1] [µM] | ΔH (kcal/mol) ± SE [1] [kcal/mol] | −TΔS [1] [kJ/mol] | binding to AeD7L1 [2] | platelet aggregation initiated with lower doses of U-46619 [3]
NCCc1ccc(O)c(O)c1 [Dopamine, dopamine] | 0.011 ± 0.00219 | -12.3 ± 0.197 | 5.15 | – | –
CNC[C@H](O)c1ccc(O)c(O)c1 [Epinephrine, epinephrine] | 4.11 ± 3.33 | -6.83 ± 0.809 | -2.67 | – | –
NCCc1c[nH]cn1 [Histamine, histamine] | 0.278 ± 0.0662 | -7.47 ± 0.378 | -6.82 | – | –
CCCCC/C=C\C[C@@H](O)/C=C/C=C/C=C\[C@@H](O)CCCC(=O)O [LTB4, leukotriene B4] | 0.342 ± 0.065 | -2.74 ± 0.085 | -26.1 | – | –
CCCCC/C=C\C\C=C/C=C/C=C/[C@@H](SC[C@H](NC(=O)CC[C@H](N)C(=O)O)C(=O)NCC(=O)O)[C@@H](O)CCCC(=O)O [LTC4] | 0.0677 ± 0.0224 | -7.90 ± 0.350 | -8.58 | – | –
CCCCC/C=C\C\C=C/C=C/C=C/[C@@H](SC[C@H](N)C(=O)NCC(=O)O)[C@@H](O)CCCC(=O)O [LTD4] | 0.332 ± 0.0483 | -5.00 ± 0.139 | -16.7 | – | –
CCCCC/C=C\C\C=C/C=C/C=C/[C@@H](SC[C@H](N)C(=O)O)[C@@H](O)CCCC(=O)O [LTE4, leukotriene E4] | 0.567 ± 0.115 | -3.98 ± 0.180 | -19.6 | – | –
NC[C@H](O)c1ccc(O)c(O)c1 [Norepinephrine, norepinephrine] | 0.00367 ± 0.000994 | -11.6 ± 0.186 | -0.485 | – | –
NCCc1c[nH]c2ccc(O)cc12 [Serotonin, serotonin] | 0.00451 ± 0.00266 | -13.7 ± 0.445 | 8.91 | – | –
NCCc1c[nH]c2ccccc12 [Tryptamine, tryptamine] | 0.57 ± 0.0977 | -6.43 ± 0.223 | -9.33 | – | –
CCCCCC(O)C=CC1C2CC(CO2)C1CC=CCCCC(=O)O (centres unmarked) [U-46619] | 0.946 ± 0.269 | -8.54 ± 0.785 | 0.791 | does not bind | –
B1 | – | – | – | – | inhibits platelet aggregation

Reference: publication PMC7601585, “Aedes albopictus D7 Salivary Protein Prevents Host Hemostasis and Inflammation” (Biomolecules, 2020)
